Test results taken from patent publication US20190030009A1, “COMPOUNDS AND COMPOSITIONS FOR THE TREATMENT OF CRYPTOSPORIDIOSIS” (Novartis AG, priority 2016, published 2019).

biological target: C. parvum PI(4)K (Cryptosporidium parvum, UniProt Q5CVD3); assay: CpPI(4)K enzymatic assay (Transcreener ADP2 FP); type: biochemical
Excerpt: The full-length coding sequence of C. parvum PI(4)K (cgd8_4500, 1114 amino acids) was codon-optimized for baculovirus expression, synthesized and cloned into pFastBac-HTb (Invitrogen 10584-027) in frame with the amino-terminal polyhistidine tag using the BamHI and Hindlll restriction sites. Recombinant pFastBacHTb-CpPI(4)K bacmid clones were generated by site-specific transposition in E. coli DH10Bac (Invitrogen 10361-012). The bacmid sequence was confirmed by direct DNA sequencing to confirm a lack of mutations across the whole gene. The subsequent steps for bacmid isolation, transfection and selection of the recombinant viruses were performed according to the manufacturer's protocol (Bac-to-Bac system #10359, Invitrogen).
SF9 cells, cultured in SF-900 III serum-free medium, were transfected with recombinant baculovirus at 1/200 (v/v) and incubated at 27° C. for 72 h. The pellets were collected after centrifugation and re-suspended in cell lysis buffer (20 mM Tris-HCl, pH 7.5, 300 mM NaCl, 1 mM DTT, 20 mM imidazole, 0.01% Triton X-100 and 1× complete protease inhibitor cocktail without EDTA (Roche Diagnostics 04693116001)). The cell suspension was lysed by sonication and the clarified supernatant was loaded onto a 1 ml HisTrap affinity column (GE Healthcare) pre-equilibrated with buffer A (20 mM Tris-HCl, pH 7.5, 300 mM NaCl, 1 mM DTT, 20 mM Imidazole, and 1× complete protease inhibitor cocktail without EDTA). The column was washed with buffer B (buffer A containing 45 mM imidazole) and the bound protein of interest was eluted with buffer C (buffer A with 90 mM imidazole). The fractions containing CpPI(4)K were pooled, concentrated using Amicon Ultra-15 and purified by a gel-filtration column (Hi-Load 26/60 Superdex 200, GE Healthcare) equilibrated with 20 mM Tris, pH 7.5, 300 mM NaCl, 1 mM DTT and 1× protease inhibitor cocktail without EDTA. The concentrations of the purified protein (Mw 132.39 kda) was determined by using the protein molar extinction coefficient (ε280 nm=133,810 M^−1 cm^−1). Aliquots were flash frozen in liquid nitrogen and immediately stored at −80° C.
The CpPI(4)K enzymatic assay was performed as described earlier with a some modifications (McNamara et al., 2013). Briefly, L-α-phosphatidylinositol (Avanti Polar Lipid 840046), dissolved in 3% n-octylglucoside (Roche Diagnostics 10634425001), was used as the lipid substrate for the PI(4)K activity assay. CpPI(4)K was assayed using Transcreener ADP2 FP detection kit (BellBrook 3010) in a black, solid 384-well plate (Corning 3575). The final assay volume was 10 μl and contained 3 nM of the respective CpPI(4)K construct in 10 mM Tris, pH 7.5, 1 mM DTT, 3 μM ATP, 5 mM Mn2+, 0.05% Triton X-100 and 10 μM phosphatidylinositol/octylglucoside. The enzyme reaction was performed for 50 minutes at room temperature and was stopped by adding 10 μl of detection mix containing 1× stop buffer (50 mM HEPES, pH7.5, 400 mM NaCl, 20 mM EDTA, and 0.02% Brij-35), 2 nM AMP Alexa Fluor 633 tracer, and 20 μg ml^−1 ADP antibody. Fluorescence polarization measurements were performed on the Infinite M1000 plate reader (Tecan) with λex=635 nm and λem=680 nm (20-nm bandwidth). IC50 values were calculated using Graphpad Prism software.
The inhibitory concentration (IC50) of selected compounds on the C. parvPI(4)K activity is provided in the third column [Cp_PI4K_enz IC50 (μM)] of Table II.

Chain of C. parvum PI(4)K (Q5CVD3 entry or part of it): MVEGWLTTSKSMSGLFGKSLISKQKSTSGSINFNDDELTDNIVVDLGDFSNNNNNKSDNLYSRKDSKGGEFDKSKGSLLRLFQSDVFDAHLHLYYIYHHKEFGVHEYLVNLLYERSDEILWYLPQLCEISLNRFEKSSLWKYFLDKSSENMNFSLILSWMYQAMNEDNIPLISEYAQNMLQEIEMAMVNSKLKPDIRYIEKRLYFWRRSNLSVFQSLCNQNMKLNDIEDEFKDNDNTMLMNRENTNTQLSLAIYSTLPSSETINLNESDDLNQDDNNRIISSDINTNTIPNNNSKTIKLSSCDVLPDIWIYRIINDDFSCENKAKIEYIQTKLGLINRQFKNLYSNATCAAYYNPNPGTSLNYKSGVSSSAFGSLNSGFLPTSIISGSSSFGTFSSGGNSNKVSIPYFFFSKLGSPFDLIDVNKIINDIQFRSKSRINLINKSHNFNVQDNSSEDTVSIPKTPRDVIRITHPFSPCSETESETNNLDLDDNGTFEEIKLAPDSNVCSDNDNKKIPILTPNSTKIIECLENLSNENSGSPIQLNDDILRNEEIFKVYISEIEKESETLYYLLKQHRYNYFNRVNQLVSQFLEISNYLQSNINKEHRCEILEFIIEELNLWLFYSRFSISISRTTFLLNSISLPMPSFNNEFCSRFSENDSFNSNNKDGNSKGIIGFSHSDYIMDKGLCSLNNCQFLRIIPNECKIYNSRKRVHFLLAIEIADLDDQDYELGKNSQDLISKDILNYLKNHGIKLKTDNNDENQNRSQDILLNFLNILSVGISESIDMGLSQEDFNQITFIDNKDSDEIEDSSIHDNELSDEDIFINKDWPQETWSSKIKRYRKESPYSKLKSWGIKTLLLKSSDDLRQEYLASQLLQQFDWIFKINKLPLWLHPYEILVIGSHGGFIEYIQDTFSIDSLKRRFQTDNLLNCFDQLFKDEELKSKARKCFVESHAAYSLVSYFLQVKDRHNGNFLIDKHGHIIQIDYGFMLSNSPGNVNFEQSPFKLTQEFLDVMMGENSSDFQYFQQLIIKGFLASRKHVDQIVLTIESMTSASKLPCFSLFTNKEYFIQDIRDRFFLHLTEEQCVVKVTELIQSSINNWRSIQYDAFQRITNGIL

SMILES	IC50
CCN(C(=O)c1ccn2ncc(-c3ccc(C(=O)NC)nc3)c2c1)c1ccc(C#N)cn1 [Example 150]	0.219 µM
CNC(=O)c1ccc(-c2cnn3ccc(C(=O)N(NC)c4ccc(C#N)cc4)cc23)cn1 [Example 92]	0.057 µM
N#Cc1ccc(N(C(=O)c2ccn3ncc(-c4ccc(C(=O)NC5COC5)cc4)c3c2)C2CC2)nc1 [Example 131]	0.329 µM
CCNC(=O)c1ccc(-c2cnn3ccc(C(=O)N(c4ccc(C#N)cn4)C4CC4)cc23)cc1 [Example 127]	0.003 µM
CCN(C(=O)c1ccn2ncc(-c3ccc(C(=O)NC)cc3)c2c1)c1ccc(C#N)cn1 [Example 90]	0.008 µM
CNC(=O)c1ccc(-c2cnn3ccc(N(C)C(=O)c4ccc(C#N)cn4)cc23)cc1 [Example 94]	0.117 µM
CC(C)NC(=O)c1ccc(-c2cnn3ccc(C(=O)N(c4ccc(C#N)cn4)C4CC4)cc23)cc1 [Example 121]	0.86 µM
CCN(C(=O)c1ccn2ncc(-c3ccc(C(=O)NC)cc3)c2c1)c1ccc(C(F)(F)F)cn1 [Example 96]	0.003 µM
N#Cc1ccc(N(C(=O)c2ccn3ncc(-c4ccc(C(N)=O)cc4)c3c2)C2CC2)nc1 [Example 120]	0.04 µM
CNC(=O)c1ccc(-c2cnn3ccc(C(=O)N(c4ccc(C(F)(F)F)cn4)C(C)C)cc23)cc1 [Example 153]	0.006 µM
CNC(=O)c1ccc(-c2cnn3ccc(C(=O)N(c4ccc(C#N)cn4)C(C)C)cc23)cc1 [Example 91]	0.021 µM
CNC(=O)c1ccc(-c2cnn3ccc(C(=O)N(c4ccc(C#N)cn4)C4CCC4)cc23)cc1 [Example 112]	0.072 µM
N#Cc1ccc(N(C(=O)c2ccn3ncc(-c4ccc(C(=O)NC5CC5)cc4)c3c2)C2CC2)nc1 [Example 123]	0.038 µM
CNC(=O)c1ccc(-c2cnn3ccc(C(=O)N(c4ccc(C(F)(F)F)cn4)C4CCC4)cc23)cc1 [Example 160]	0.008 µM
CNC(=O)c1ccc(-c2cnn3ccc(C(=O)N(c4ccc(C#N)c(OC)n4)C4CC4)cc23)cc1 [Example 149]	0.004 µM
CNC(=O)c1ccc(-c2cnn3ccc(C(=O)N(c4ccc(Cl)cn4)C4CC4)cc23)cc1 [Example 124]	0.014 µM
